According to patent US11116774B2, “Modulators of toll-like receptors for the treatment of HIV” (Gilead Sciences, Inc., priority 2014, dated 2021):
Where “and” joins values, the source holds several entries; their conditions need not be identical. Equal values may be shown once. Read-outs that look alike come from different tables or passages of the source.

Legend:
[1] = test system: CD3+CD8+ lymphocytes in PBMC cultures from healthy and HIV-1 infected donors; experiment: In vitro lymphocyte subset activation in PBMC cultures, CD69 on CD8+ lymphocytes (Example 207); type: cell-based, human; settings: 24 hours; for CD69 Expression on CD3+CD8+ Lymphocytes, Mean Maximum Expression Background Subtracted: mean of donors 120-123; for CD69 Expression on CD3+CD8+ Lymphocytes, Maximum Expression (Actual %) / CD69 Expression on CD3+CD8+ Lymphocytes, Maximum Expression Background Subtracted: per donor, PBMC cultures
Procedure: (§1) Total PBMC cultures were treated with various concentrations of the identified TLR7 modulating compounds (Compounds of Example 4 and Example 49) for 24 hours. At the end of the incubation period, total PBMC were harvested and stained with antibodies conjugated to specific fluorophores to delineate human CD4 lymphocytes (CD3+CD4+CD8−) or CD8 lymphocytes (CD3+CD8+CD4-) and co-expressing the early activation marker CD69. Cells were analyzed by flow cytometry and data collected on an LSR FortessaX20 instrument (BD Biosciences).

[2] = test system: CD3+CD4+ lymphocytes in PBMC cultures from HIV-1 infected donors; experiment: In vitro lymphocyte subset activation in PBMC cultures, CD69 on CD4+ lymphocytes (Example 207); type: cell-based, human; settings: 24 hours; for CD69 Expression on CD3+CD4+ Lymphocytes, Mean Maximum Expression Background Subtracted: mean of donors 120-123; for CD69 Expression on CD3+CD4+ Lymphocytes, Maximum Expression (Actual %) / CD69 Expression on CD3+CD4+ Lymphocytes, Maximum Expression Background Subtracted: per donor, PBMC from HIV-1 infected donors
Procedure: as §1

[3] = test system: HIV-1 expression in PBMC cultures from HIV-1 infected donors on cART; experiment: Induced HIV-1 expression in PBMC cultures from HIV-1 infected donors on cART (Example 208); type: cell-based, human; settings: for patients whose cultures showed two-fold or higher activation over the DMSO control: 4 to 5 days, with elvitegravir and efavirenz 100 nM each; for fold induction at 0.01 µM / fold induction at 0.1 µM / fold induction at 0.156 µM / fold induction at 1 µM / fold induction at 2.5 µM / fold induction at 10 µM: Human immunodeficiency virus 1, PBMC; for fold induction at 0.01 µM: read-out: Fold HIV-1 Induction, Geometric Mean, 0.01 μM; for fold induction at 0.01 µM / fold induction at 0.156 µM / fold induction at 2.5 µM: donors 152-155; for fold induction at 0.1 µM: read-out: Fold HIV-1 Induction, Geometric Mean, 0.1 μM; for fold induction at 0.1 µM / fold induction at 1 µM: donors 122, 124-128; for fold induction at 0.156 µM: read-out: Fold HIV-1 Induction, Geometric Mean, 0.156 μM; for fold induction at 1 µM: read-out: Fold HIV-1 Induction, Geometric Mean, 1 μM; for fold induction at 2.5 µM: read-out: Fold HIV-1 Induction, Geometric Mean, 2.5 μM; for fold induction at 10 µM: read-out: Fold HIV-1 Induction, Geometric Mean, 10 μM, donors 124-127
Procedure: Isolated PBMCs were treated with various concentrations (0.1, 1, and 10 μM) of the TLR7 modulating compounds (compounds of Example 4 and Example 49) or dimethyl sulfoxide (DMSO) treated (vehicle control) for 4 to 5 days. The cultures were maintained in the presence of antivirals (elvitegravir and efavirenz at 100 nM each) to prevent viral spread and amplification in order to measure initial virus production (latency reversal) created by the TLR7 modulating compounds. At the end of the incubation period cell-free culture supernatants were harvested and HIV-1 RNA levels were quantified by the COBAS® AmpliPrep/COBAS® TaqMan HIV-1 Test, v2.0 (Roche).
Using the method described above in Example 208, HIV-1 expression in PBMC cultures derived from four additional HIV-1 infected donors on cART were tested in the presence of the compounds of Examples 4, 29, 120, 121, 122, 123, 124, resiquimod, and imiquimod.

[4] = test system: HIV-1BaL; experiment: Antiviral activity on in vitro HIV-1 infected PBMC cultures, Gag p24 ELISA (Example 209); type: cell-based; settings: Human immunodeficiency virus 1, 144 h, PHA-stimulated human PBMC infected with HIV-1BaL, six days with IL-2, Gag p24
Procedure: Antiretroviral activity was assessed by testing the TLR7 modulating compounds (Compounds of Example 4 and Example 49) in total human PBMC cultures that were first treated with mitogen (phytohemogglutinin A) for two days prior to infection with HIV-1BaL. Infected cells were cultured in the presence of interleukin-2 and various concentrations of the TLR7 modulating compounds or the nucleoside analog HIV-1 reverse transcriptase inhibitor azidothymidine (AZT, positive control) for six days. At the end of the incubation period, cell-free culture supernatants were harvested and antiviral activity determined by measuring production of HIV-1 Gag p24 by commercially available ELISA kits.

[5] = at least 8 independent donors, read-out: Range EC50
[6] = mean ± SD from at least 8 independent donors, read-out: Mean EC50

SMILES	CD69 Expression on CD3+CD8+ Lymphocytes, Mean Maximum Expression Background Subtracted [1] [%]	CD69 Expression on CD3+CD8+ Lymphocytes, Maximum Expression (Actual %) [1]	CD69 Expression on CD3+CD8+ Lymphocytes, Maximum Expression Background Subtracted [1]	CD69 Expression on CD3+CD4+ Lymphocytes, Mean Maximum Expression Background Subtracted [2] [%]	CD69 Expression on CD3+CD4+ Lymphocytes, Maximum Expression (Actual %) [2]	CD69 Expression on CD3+CD4+ Lymphocytes, Maximum Expression Background Subtracted [2]	Donors with ≥2-fold HIV-1 Induction ([3]; 0.01 μM, Tables 7-11)	Donors with ≥2-fold HIV-1 Induction ([3]; 0.1 μM, Table 6)	Donors with ≥2-fold HIV-1 Induction ([3]; 0.156 μM, Tables 7-11)	Donors with ≥2-fold HIV-1 Induction ([3]; 1 μM, Table 6)	Donors with ≥2-fold HIV-1 Induction ([3]; 2.5 μM, Tables 7-11)	Donors with ≥2-fold HIV-1 Induction ([3]; 10 μM, Table 6)	fold induction at 0.01 µM ([3]; Tables 7-11)	fold induction at 0.1 µM ([3]; Table 6)	fold induction at 0.156 µM ([3]; Tables 7-11)	fold induction at 1 µM ([3]; Table 6)	fold induction at 2.5 µM ([3]; Tables 7-11)	fold induction at 10 µM ([3]; Table 6)	EC50 [4, 5] [nM]	EC50 [4, 6] [nM]	also measured
CCCCOc1nc(N)c2c(n1)N(Cc1cccc(CN3CCCC3)c1)CC(=O)N2 [Example 49]	31	55% and 43% and 35% and 32%	31% and 29% and 33% and 30%	22	59% and 39% and 24% and 25%	21% and 20% and 23% and 24%	2 of 4	3 of 6	4 of 4	4 of 6	4 of 4	1 of 4	4	2.3	6.7	2.8	9.4	1.4	4 to 691	170 ± 240	patients whose cultures showed two-fold or higher activation over the DMSO control ([3]; 0.1 μM): 4 of 6; patients whose cultures showed two-fold or higher activation over the DMSO control ([3]; 1 μM): 3 of 6; patients whose cultures showed two-fold or higher activation over the DMSO control ([3]; 10 μM): 1 of 4
CCCCOc1nc(N)c2c(n1)N(Cc1ccc(CN3CCCC3)cc1)CC(=O)N2 [Example 4]	32	60% and 44% and 35% and 32%	36% and 30% (2×) and 33%	22	57% and 41% and 26% and 24%	19% and 21% and 25% and 24%	4 of 4	4 of 6	4 of 4	3 of 6	4 of 4	3 of 4	4.3	2	5.3	1.6	4	3.9	0.8 to 81	33 ± 35	–
